The record followed here is patent publication US20240400555A1 (Initial Therapeutics, Inc., priority 2023, published 2024).

pIC50: −log10 of the molar value.

The first assay concerns MV-4-11 cells. As to the kind of experiment: Cell Viability Assay in MV-4-11 Cells. In kind it is cell-based. The conditions noted are these: Homo sapiens, MV4-11, 72 h. The method, then:
MV-4-11 cells (ATCC) were seeded into sterile 96-well flat clear bottom white polystyrene TC-treated microplates (Corning) at 7,000 cells/well in 150 μL complete growth medium (Iscove's Modified Dulbecco's Medium (IMDM) (Gibco), 10% Heat Inactivated Fetal Bovine Serum (HyClone), 1% Penicillin-Streptomycin-L-Glutamine (HyClone), 1% GlutaMAX (Gibco)). […] After 72 h incubation, plates were removed from incubators and allowed to equilibrate to room temperature (˜10 min) before adding 50 μL per well Cell-Titer Glo reagent (Promega) using a WellJet (Integra Biosciences) dispenser. Plates were then incubated at room temperature for 2-20 min prior to measurement of luminescence on an Envision (Perkin Elmer) plate reader. Data were normalized to DMSO (100% viability) and analyzed using a non-linear four-parameter curve fit.
Regarding `CC(C)NC(=O)c1ccc2c(N(C(=O)c3ccc(-n4nnc5cccnc54)cc3F)[C@@H]3CCCNC3)nccc2c1` [Example 372, (R)-1-(4-(3H-[1,2,3]triazolo[4,5-b]pyridin-3-yl)-2-fluoro-N-(piperidin-3-yl)benzamido)-N-isopropylisoquinoline-6-carboxamide], the pIC50 (in general, the IC50 on a negative log10 scale, so that one unit is a factor of ten) is 7.00.
Same read-out and setting: with `C=C(C)c1csc2c(N(C(=O)c3ccc(-c4cn(C)nn4)cc3F)[C@@H]3CCCNC3)nccc12` [Example 675, 2-fluoro-N-(3-isopropenylthieno[2,3-c]703yridine-7-yl)-4-(1-methyltriazol-4-yl)-N-[(3R)-3-piperidyl]benzamide] the figure was < 6.00.

Still in this assay, the particulars now being: Homo sapiens, MV4-11, 72 h, MV-4-11 cells, 72 h, Cell-Titer Glo; read-out: IC50.
With `Cc1nnc(-c2ccc(C(=O)N(c3nccc4sc(C#CCCO)cc34)[C@@H]3CCCNC3)c(F)c2)s1` [Example 818, (R)-2-fluoro-N-(2-(4-hydroxybut-1-yn-1-yl)thieno[3,2-c]pyridin-4-yl)-4-(5-methyl-1,3,4-thiadiazol-2-yl)-N-(piperidin-3-yl)benzamide], the pIC50 is 5.89.
Regarding `Cc1nnc(-c2ccc(C(=O)N(c3nccc4cc(Cl)cc(C)c34)[C@@H]3CCCNC3)cc2F)s1` [Example 708, (R)—N-(6-chloro-8-methylisoquinolin-1-yl)-3-fluoro-4-(5-methyl-1,3,4-thiadiazol-2-yl)-N-(piperidin-3-yl)benzamide], the pIC50 is 6.80.
Take `COc1ccc(C)c2c(N(C(=O)c3ccc(-c4nnc(C)s4)cn3)[C@@H]3CCCNC3)nccc12` [Example 870, N-(5-methoxy-8-methyl-1-isoquinolyl)-5-(5-methyl-1,3,4-thiadiazol-2-yl)-N-[(3R)-3-piperidyl]pyridine-2-carboxamide]: the pIC50 is 5.72.
For the compound `Cn1cc(-c2ccc(C(=O)N(c3nccc4sc(/C=C/C(N)=O)cc34)[C@@H]3CCCNC3)c(F)c2)nn1` [Example 486, N-[2-[(E)-3-amino-3-oxo-prop-1-enyl]thieno[3,2-c]pyridin-4-yl]-2-fluoro-4-(1-methyltriazol-4-yl)-N-[(3R)-3-piperidyl]benzamide], the pIC50 is < 5.00.
On to `Cc1cccc2ccnc(N(C(=O)c3ccc(C#N)c(-c4ccc(-c5ccncc5)cc4)c3)[C@@H]3CCCNC3)c12` [Example 330, 4-cyano-N-(8-methyl-1-isoquinolyl)-N-[(3R)-3-piperidyl]-3-[4-(4-pyridyl)phenyl]benzamide], for which the pIC50 is 7.05.
With `Cc1cc(Cl)cc2ccnc(N(C(=O)c3ccc(-c4cn(C)nn4)cc3F)[C@H]3CCCNC3)c12` [Example 621, (S)—N-(6-chloro-8-methylisoquinolin-1-yl)-2-fluoro-4-(1-methyl-1H-1,2,3-triazol-4-yl)-N-(piperidin-3-yl)benzamide], the pIC50 is 5.39.
`CCc1nnc(-c2ccc(C(=O)N(c3nccc4cccc(C)c34)[C@@H]3CCCNC3)c(F)c2)s1` [Example 837, (R)-4-(5-ethyl-1,3,4-thiadiazol-2-yl)-2-fluoro-N-(8-methylisoquinolin-1-yl)-N-(piperidin-3-yl)benzamide]: the pIC50 is 7.47.
As for `COc1cc(C(=O)N(c2nccc3cc(Cl)cc(C)c23)[C@@H]2CCCNC2)ccc1-c1nnc(C)s1` [Example 706, (R)—N-(6-chloro-8-methylisoquinolin-1-yl)-3-methoxy-4-(5-methyl-1,3,4-thiadiazol-2-yl)-N-(piperidin-3-yl)benzamide], the pIC50 was 6.38.
On to `Cn1cc(-c2ccc(C(=O)N(c3nccc4sc(-c5ccc(CO)s5)cc34)[C@@H]3CCCNC3)c(F)c2)nn1` [Example 481, (R)-2-fluoro-N-(2-(5-(hydroxymethyl)thiophen-2-yl)thieno[3,2-c]pyridin-4-yl)-4-(1-methyl-1H-1,2,3-triazol-4-yl)-N-(piperidin-3-yl)benzamide], for which the pIC50 is 6.57.
As for `O=C(c1ccc(-n2nnc3cccnc32)cc1F)N(c1nccc2sc(C#CCCCO)cc12)[C@@H]1CCCNC1` [Example 844, (R)-4-(3H-[1,2,3]triazolo[4,5-b]pyridin-3-yl)-2-fluoro-N-(2-(5-hydroxypent-1-yn-1-yl)thieno[3,2-c]pyridin-4-yl)-N-(piperidin-3-yl)benzamide], the pIC50 is 6.22.
For the compound `Cc1cccc2ccnc(N(C(=O)c3ccc(Nc4nccc(NCc5nccs5)n4)cc3F)[C@@H]3CCCNC3)c12` [Example 693, (R)-2-fluoro-N-(8-methylisoquinolin-1-yl)-N-(piperidin-3-yl)-4-((4-((thiazol-2-ylmethyl)amino)pyrimidin-2-yl)amino)benzamide], the pIC50 was 6.92.
On to `COC(=O)[C@@H]1COCCN1c1ccnc(Nc2ccc(C(=O)N(c3nccc4cccc(C)c34)[C@@H]3CCCNC3)c(F)c2)n1` [Example 945, methyl(S)-4-(2-((3-fluoro-4-((8-methylisoquinolin-1-yl)((R)-piperidin-3-yl)carbamoyl)phenyl)amino)pyrimidin-4-yl)morpholine-3-carboxylate], for which the pIC50 is 7.33.
Consider `Cc1cccc2ccnc(N(C(=O)N3CCC(c4cn(C)nn4)CC3)[C@@H]3CCCNC3)c12` [Example 347, N-(8-methyl-1-isoquinolyl)-4-(1-methyltriazol-4-yl)-N-[(3R)-3-piperidyl]piperidine-1-carboxamide], for which the pIC50 is 6.52.
Take `Cn1cc(-c2ccc(C(=O)N(c3cc(/C=C\CCO)ccn3)[C@@H]3CCCNC3)cc2)nn1` [Example 346, N-[4-[(Z)-4-hydroxybut-1-enyl]-2-pyridyl]-4-(1-methyltriazol-4-yl)-N-[(3R)-3-piperidyl] benzamide]: the pIC50 is < 5.00.
Turning to `Cc1noc(-c2ccc(C(=O)N(c3nccc4scc(C)c34)[C@@H]3CCCNC3)c(F)c2)n1` [Example 778, (R)-2-fluoro-4-(3-methyl-1,2,4-oxadiazol-5-yl)-N-(3-methylthieno[3,2-c]pyridin-4-yl)-N-(piperidin-3-yl)benzamide], the negative logarithm of the IC50 (pIC50) was 6.55.
Regarding `[2H]C([2H])([2H])n1cc(-c2ccc(C(=O)N(c3nccc4cc(Cl)cc(C)c34)[C@@H]3CCCNC3)cc2)nn1` [Example 892, N-(6-chloro-8-methyl-1-isoquinolyl)-N-[(3R)-3-piperidyl]-4-[1-(trideuteriomethyl)triazol-4-yl] benzamide], the pIC50 was 7.29.
With `CCN1CCN(c2ccnc(Nc3ccc(C(=O)N(c4nccc5cccc(C)c45)[C@@H]4CCCNC4)c(F)c3)n2)CC1` [Example 713, (R)-4-((4-(4-ethylpiperazin-1-yl)pyrimidin-2-yl)amino)-2-fluoro-N-(8-methylisoquinolin-1-yl)-N-(piperidin-3-yl)benzamide], the pIC50 is 7.09.
Still for that read-out and setting: with `COc1ccc(C)c2c(N(C(=O)c3ccc(-c4nnc(C)s4)nc3)[C@@H]3CCCNC3)nccc12` [Example 902, N-(5-methoxy-8-methyl-1-isoquinolyl)-6-(5-methyl-1,3,4-thiadiazol-2-yl)-N-[(3R)-3-piperidyl] pyridine-3-carboxamide] the figure was 6.42; with `CNC(=O)/C=C/c1cc2c(N(C(=O)c3ccc(-n4nnc5cccnc54)cc3F)[C@@H]3CCCNC3)nccc2s1` [Example 525, 2-fluoro-N-[2-[(E)-3-(methylamino)-3-oxo-prop-1-enyl]thieno[3,2-c]pyridin-4-yl]-N-[(3R)-3-piperidyl]-4-(triazolo[4,5-b]pyridin-3-yl)benzamide], 6.10.
Turning to `Cc1cccnc1N(C(=O)c1ccc(Nc2ncccn2)cc1)[C@@H]1CCCNC1` [Example 924, (R)—N-(3-methylpyridin-2-yl)-N-(piperidin-3-yl)-4-(pyrimidin-2-ylamino)benzamide], the pIC50 was 7.07.
As for `NC(=O)c1cc(-c2cc3c(N(C(=O)c4ccc(-n5nnc6cccnc65)cc4F)[C@@H]4CCCNC4)nccc3s2)cs1` [Example 568, 4-[4-[[2-fluoro-4-(triazolo[4,5-b]pyridin-3-yl)benzoyl]-[(3R)-3-piperidyl]amino]thieno[3,2-c]pyridin-2-yl]thiophene-2-carboxamide], the pIC50 was 7.05.
As to `Cc1cnc(-c2ccc3c(N(C(=O)c4ccc(-n5nnc6cccnc65)cc4F)[C@@H]4CCCNC4)nccc3c2)s1` [Example 574, (R)-4-(3H-[1,2,3]triazolo[4,5-b]pyridin-3-yl)-2-fluoro-N-(6-(5-methylthiazol-2-yl)isoquinolin-1-yl)-N-(piperidin-3-yl)benzamide], the pIC50 was 6.41.
As for `Cn1cc(-c2ccc(C(=O)N(c3nccc4cc(-c5ccccc5O)ccc34)[C@@H]3CCCNC3)c(F)c2)nn1` [Example 493, (R)-2-fluoro-N-(6-(2-hydroxyphenyl)isoquinolin-1-yl)-4-(1-methyl-1H-1,2,3-triazol-4-yl)-N-(piperidin-3-yl)benzamide], the pIC50 was 6.28.
On to `Cc1cc(-c2cc3c(N(C(=O)c4ccc(-n5nnc6cccnc65)cc4F)[C@@H]4CCCNC4)nccc3s2)cc(C)c1C(N)=O` [Example 606, (R)-4-(3H-[1,2,3]triazolo[4,5-b]pyridin-3-yl)-N-(2-(4-carbamoyl-3,5-dimethylphenyl)thieno[3,2-c]pyridin-4-yl)-2-fluoro-N-(piperidin-3-yl)benzamide], for which the pIC50 was 6.40.
Turning to `Cc1cccc2ccnc(N(C(=O)c3ccc(Nc4nccc(N5CCC(C)(CO)CC5)n4)cc3F)[C@@H]3CCCNC3)c12` [Example 963, 2-fluoro-4-({4-[4-(hydroxymethyl)-4-methylpiperidin-1-yl]pyrimidin-2-yl}amino)-N-(8-methylisoquinolin-1-yl)-N-[(3R)-piperidin-3-yl]benzamide], the pIC50 was 7.92.
In the case of `Cn1cc(-c2ccc(C(=O)N(c3nccc4cc(C#N)ccc34)[C@@H]3CCCNC3)c(F)c2)nn1` [Example 472, (R)—N-(6-cyanoisoquinolin-1-yl)-2-fluoro-4-(1-methyl-1H-1,2,3-triazol-4-yl)-N-(piperidin-3-yl)benzamide], the pIC50 is 6.24.
